According to ChEMBL document CHEMBL1148995, “Antitumor agents from bohemic acid complex, VI. Schaunardimycin” (J Nat Prod, 1984):

Legend:
Mus musculus [1] = assay: Toxicity in mouse L1210 cells implanted CDF1 mouse assessed as average weight gain at 12.8 mg/kg, ip single dose on day 1; format: organism-based; parameters: dose 12.8 mg/kg, route intraperitoneal; settings: in vivo
Mus musculus [2] = assay: Toxicity in mouse L1210 cells implanted CDF1 mouse assessed as average weight gain at 6.4 mg/kg, ip single dose on day 1; format: organism-based; parameters: dose 6.4 mg/kg, route intraperitoneal; settings: in vivo
Mus musculus [3] = assay: Toxicity in mouse L1210 cells implanted CDF1 mouse assessed as average weight gain at 3.2 mg/kg, ip single dose on day 1; format: organism-based; parameters: dose 3.2 mg/kg, route intraperitoneal; settings: in vivo
Mus musculus [4] = assay: Toxicity in mouse L1210 cells implanted CDF1 mouse assessed as average weight gain at 1.6 mg/kg, ip single dose on day 1; format: organism-based; parameters: dose 1.6 mg/kg, route intraperitoneal; settings: in vivo
Mus musculus [5] = assay: Toxicity in mouse L1210 cells implanted CDF1 mouse assessed as average weight gain at 0.8 mg/kg, ip single dose on day 1; format: organism-based; parameters: dose 0.8 mg/kg, route intraperitoneal; settings: in vivo
Mus musculus [6] = assay: Toxicity in mouse L1210 cells implanted CDF1 mouse assessed as average weight gain at 0.4 mg/kg, ip single dose on day 1; format: organism-based; parameters: dose 0.4 mg/kg, route intraperitoneal; settings: in vivo
Mus musculus [7] = assay: Toxicity in mouse L1210 cells implanted CDF1 mouse assessed as average weight gain at 0.2 mg/kg, ip single dose on day 1; format: organism-based; parameters: dose 0.2 mg/kg, route intraperitoneal; settings: in vivo
Mus musculus [8] = assay: Toxicity in mouse L1210 cells implanted CDF1 mouse assessed as average weight gain at 6.4 mg/kg, ip qd for 1 to 5 days; format: organism-based; parameters: dose 6.4 mg/kg, route intraperitoneal; settings: in vivo
Mus musculus [9] = assay: Toxicity in mouse L1210 cells implanted CDF1 mouse assessed as average weight gain at 3.2 mg/kg, ip qd for 1 to 5 days; format: organism-based; parameters: dose 3.2 mg/kg, route intraperitoneal; settings: in vivo
Mus musculus [10] = assay: Toxicity in mouse L1210 cells implanted CDF1 mouse assessed as average weight gain at 1.6 mg/kg, ip qd for 1 to 5 days; format: organism-based; parameters: dose 1.6 mg/kg, route intraperitoneal; settings: in vivo
Mus musculus [11] = assay: Toxicity in mouse L1210 cells implanted CDF1 mouse assessed as average weight gain at 0.8 mg/kg, ip qd for 1 to 5 days; format: organism-based; parameters: dose 0.8 mg/kg, route intraperitoneal; settings: in vivo
Mus musculus [12] = assay: Toxicity in mouse L1210 cells implanted CDF1 mouse assessed as average weight gain at 0.4 mg/kg, ip qd for 1 to 5 days; format: organism-based; parameters: dose 0.4 mg/kg, route intraperitoneal; settings: in vivo
Mus musculus [13] = assay: Toxicity in mouse L1210 cells implanted CDF1 mouse assessed as average weight gain at 0.2 mg/kg, ip qd for 1 to 5 days; format: organism-based; parameters: dose 0.2 mg/kg, route intraperitoneal; settings: in vivo
Mus musculus [14] = assay: Toxicity in mouse L1210 cells implanted CDF1 mouse assessed as survivors on day 5 at 25.6 mg/kg, ip single dose on day 1; format: organism-based; parameters: dose 25.6 mg/kg, route intraperitoneal; settings: in vivo
Mus musculus [15] = assay: Toxicity in mouse L1210 cells implanted CDF1 mouse assessed as survivors on day 5 at 12.8 mg/kg, ip single dose on day 1; format: organism-based; parameters: dose 12.8 mg/kg, route intraperitoneal; settings: in vivo
Mus musculus [16] = assay: Toxicity in mouse L1210 cells implanted CDF1 mouse assessed as survivors on day 5 at 6.4 mg/kg, ip single dose on day 1; format: organism-based; parameters: dose 6.4 mg/kg, route intraperitoneal; settings: in vivo
Mus musculus [17] = assay: Toxicity in mouse L1210 cells implanted CDF1 mouse assessed as survivors on day 5 at 3.2 mg/kg, ip single dose on day 1; format: organism-based; parameters: dose 3.2 mg/kg, route intraperitoneal; settings: in vivo
Mus musculus [18] = assay: Toxicity in mouse L1210 cells implanted CDF1 mouse assessed as survivors on day 5 at 1.6 mg/kg, ip single dose on day 1; format: organism-based; parameters: dose 1.6 mg/kg, route intraperitoneal; settings: in vivo
Mus musculus [19] = assay: Toxicity in mouse L1210 cells implanted CDF1 mouse assessed as survivors on day 5 at 0.8 mg/kg, ip single dose on day 1; format: organism-based; parameters: dose 0.8 mg/kg, route intraperitoneal; settings: in vivo
Mus musculus [20] = assay: Toxicity in mouse L1210 cells implanted CDF1 mouse assessed as survivors on day 5 at 0.4 mg/kg, ip single dose on day 1; format: organism-based; parameters: dose 0.4 mg/kg, route intraperitoneal; settings: in vivo
Mus musculus [21] = assay: Toxicity in mouse L1210 cells implanted CDF1 mouse assessed as survivors on day 5 at 0.2 mg/kg, ip single dose on day 1; format: organism-based; parameters: dose 0.2 mg/kg, route intraperitoneal; settings: in vivo
Mus musculus [22] = assay: Toxicity in mouse L1210 cells implanted CDF1 mouse assessed as survivors on day 5 at 6.4 mg/kg, ip qd for 1 to 5 days; format: organism-based; parameters: dose 6.4 mg/kg, route intraperitoneal; settings: in vivo
Mus musculus [23] = assay: Toxicity in mouse L1210 cells implanted CDF1 mouse assessed as survivors on day 5 at 3.2 mg/kg, ip qd for 1 to 5 days; format: organism-based; parameters: dose 3.2 mg/kg, route intraperitoneal; settings: in vivo
Mus musculus [24] = assay: Toxicity in mouse L1210 cells implanted CDF1 mouse assessed as survivors on day 5 at 1.6 mg/kg, ip qd for 1 to 5 days; format: organism-based; parameters: dose 1.6 mg/kg, route intraperitoneal; settings: in vivo
Mus musculus [25] = assay: Toxicity in mouse L1210 cells implanted CDF1 mouse assessed as survivors on day 5 at 0.8 mg/kg, ip qd for 1 to 5 days; format: organism-based; parameters: dose 0.8 mg/kg, route intraperitoneal; settings: in vivo
Mus musculus [26] = assay: Toxicity in mouse L1210 cells implanted CDF1 mouse assessed as survivors on day 5 at 0.4 mg/kg, ip qd for 1 to 5 days; format: organism-based; parameters: dose 0.4 mg/kg, route intraperitoneal; settings: in vivo
Mus musculus [27] = assay: Toxicity in mouse L1210 cells implanted CDF1 mouse assessed as survivors on day 5 at 0.2 mg/kg, ip qd for 1 to 5 days; format: organism-based; parameters: dose 0.2 mg/kg, route intraperitoneal; settings: in vivo
L1210 = assay: Antitumor activity against mouse L1210 cells implanted in CDF1 mouse at 0.2 mg/kg, ip qd for 1 to 5 days relative to control; format: functional; settings: route intraperitoneal

CC[C@@]1(O)C[C@H](O[C@H]2C[C@H](NC)[C@H](O[C@H]3C[C@H](O)[C@H](O)[C@H](C)O3)[C@H](C)O2)c2c(cc3c(c2O)C(=O)c2c(O)ccc(O)c2C3=O)[C@H]1C(=O)OC [SCHAUNARDIMYCIN]
Activity (Mus musculus [1]): 0.7 g | Activity (Mus musculus [2]): 2.5 g | Activity (Mus musculus [3]): 3.2 g | weight gain (Mus musculus [4]): 2.7 g | weight gain (Mus musculus [5]): 2.8 g | weight gain (Mus musculus [6]): 2.8 g | weight gain (Mus musculus [7]): 2.5 g | Activity (Mus musculus [8]): 1.6 g | Activity (Mus musculus [9]): 2.8 g | weight gain (Mus musculus [10]): 3 g | weight gain (Mus musculus [11]): 3.5 g | weight gain (Mus musculus [12]): 2.6 g | weight gain (Mus musculus [13]): 2.6 g | Activity (Mus musculus [14]): Active | Activity (Mus musculus [15]): Active | Activity (Mus musculus [16]): Active | Activity (Mus musculus [17]): Active | Activity (Mus musculus [18]): Active | Activity (Mus musculus [19]): Active | Activity (Mus musculus [20]): Active | Activity (Mus musculus [21]): Active | Activity (Mus musculus [22]): Active | Activity (Mus musculus [23]): Active | Activity (Mus musculus [24]): Active | Activity (Mus musculus [25]): Active | Activity (Mus musculus [26]): Active | Activity (Mus musculus [27]): Active | T/C (L1210): 117%
